This is an account of results in patent publication US5254576A, “Diphenyl-heterocyclic-oxazole as platelet aggregation inhibitors” (Bristol-Myers Squibb Company, priority 1992, dated 1993).

Converted amounts (≈) assume the structure as drawn.

The test system of assay [1] is ADP-induced aggregation of human blood platelets. The experiment in a line: cells. As to conditions: Platelet, read-out: IC50 (human PRP vs ADP).
For another assay, the system named is platelet aggregation. The following applies: prior art (U.S. Pat. No. 4,460,598; EPO 0434034); cited from earlier work.
The subject of another assay is human PRP vs ADP. The following applies: U.S. Pat. No. 4,460,598; Lautenschlager, et al., Drugs of the Future, 11, 26 (1986); cited from earlier work.

With `O=C(O)COc1cccc(-c2ocnc2-c2nc(-c3ccccc3)c(-c3ccccc3)o2)c1` [Compound 5], in assay [1], the IC50 was found to be 0.012 µg/mL (≈ 0.0274 µM). In the case of `COC(=O)COc1cccc(-c2ocnc2-c2nc(-c3ccccc3)c(-c3ccccc3)o2)c1` [Compound 6], the IC50 in assay [1] is 0.012 µg/mL (≈ 0.0265 µM). On the same count and under the same terms, for `COCOc1cccc(-c2ocnc2-c2nc(-c3ccccc3)c(-c3ccccc3)o2)c1` [Compound 10] the value was 28 µg/mL (≈ 66 µM). Still for that read-out and setting: under `c1ccc(-c2nc(-c3ncoc3-c3cccc(OCc4nnn[nH]4)c3)oc2-c2ccccc2)cc1` [Compound 12, 5-[3-[4-(4,5-Diphenyl-2-oxazolyl)-5-oxazolyl]-phenoxy]methyl-1H-tetrazole] stands 0.06 µg/mL (≈ 0.13 µM); under `COC(=O)COc1cccc(-c2ocnc2-c2nnc(-c3ccccc3)n2-c2ccccc2)c1` [Compound 16, Methyl [3-[4-(4,5-diphenyl-4H-1,2,4-triazol-3-yl)-5-oxazolyl]phenoxy]acetate], > 32 µg/mL; under `O=C(O)COc1cccc(-c2ocnc2-c2nnc(-c3ccccc3)n2-c2ccccc2)c1` [Compound 17], > 32 µg/mL.

With `COC(=O)COc1cccc(-c2ocnc2-c2nc(-c3ccsc3)c(-c3ccsc3)o2)c1` [Compound 19], the IC50 in assay [1] came to 0.19 µg/mL (≈ 0.409 µM). Same read-out and setting: under `O=C(O)COc1cccc(-c2ocnc2-c2nc(-c3ccsc3)c(-c3ccsc3)o2)c1` [Compound 20] stands 0.21 µg/mL (≈ 0.466 µM). On the same count and under the same terms, under `COC(=O)COc1cccc(-c2ocnc2-c2nc(-c3ccccc3)c(-c3ccccc3)[nH]2)c1` [Compound 22] stands 0.13 µg/mL (≈ 0.288 µM); under `O=C(O)COc1cccc(-c2ocnc2-c2nc(-c3ccccc3)c(-c3ccccc3)[nH]2)c1` [Compound 23], 0.012 µg/mL (≈ 0.0274 µM); under `COC(=O)COc1cccc(-c2ocnc2-c2nc(-c3ccccc3)c(-c3ccccc3)s2)c1` [Compound 31], 0.26 µg/mL (≈ 0.555 µM). On to `O=C(O)COc1cccc(-c2ocnc2-c2nc(-c3ccccc3)c(-c3ccccc3)s2)c1` [Compound 32], for which the IC50 in assay [1] was found to be 0.096 µg/mL (≈ 0.211 µM). Consider `O=C(O)CCCCCCCOc1nc(-c2ccccc2)c(-c2ccccc2)n1-c1ccccc1` [Octimibate], for which, in the assay with platelet aggregation, the “inhibition of platelet aggregation, in words” value is listed as “broad spectrum inhibitor of platelet aggregation”. Further, the “IC50 (human PRP vs ADP)” value with human PRP vs ADP was 1 µg/mL (≈ 2.2 µM).
